The results in this text go back to US4414205A, “Cell growth inhibitory substances” (University Patents, Inc., priority 1981, dated 1983).

The test system of experiment [1] is B16 melanoma. Put plainly: Mouse tumor system B16 melanoma (NCI murine B16 melanoma test). In kind it is in vivo. The procedure: (§1) A description of the antitumor tests, described herein, appears in the reference by R. I. Geran, N. H. Greenberg, M. M. MacDonald, A. M. Schumacher and B. J. Abbott, Cancer Chemother. Rep. Part 3, Vol. 3(2): 1-103 (1972).
(§2) ^a tumors were inoculated intraperitoneally (i.p.)
(§3) ^b compounds were administered i.p. everyday for 9 days starting on
(§4) the first day after tumor inoculation.
(§5) ^c Calculated from median survival times; Nos. in parentheses = No. o
(§6) cures/total No. of mice in group. Cured mice survive for at least 60 days

In experiment [2] the test system is P388 leukemia. Briefly: Mouse tumor system P388 leukemia (murine P388 lymphocytic leukemia). It is filed as in vivo. How it is done: as §1, §2, §3, §4, §5, §6

With Dolastatin 1, the “No. of cures/total No. of mice in group” value in experiment [1] (B16 melanoma i.p., optimal dose i.p. daily for 9 days, cured mice survive at least 60 days) is given as 3/10. The “life span in percent of controls” value in experiment [1] (B16 melanoma inoculated i.p., compound i.p. every day for 9 days at optimal dose, from median survival times) is reported as 240% of controls; in experiment [2] (P388 leukemia inoculated i.p., compound i.p. every day for 9 days at optimal dose, from median survival times) it was 188% of controls. In addition, the optimal dose is 11 μg/kg/injection in experiment [1] (B16 melanoma, i.p. every day for 9 days starting first day after tumor inoculation) and 11 μg/kg/injection in experiment [2] (P388 leukemia, i.p. every day for 9 days starting first day after tumor inoculation). In experiment [1] (murine B16 melanoma, intraperitoneal dose of 11 μg/kg/day), this substance yielded a curative response of 30%. Moreover, the life extension in experiment [2] (murine P388 lymphocytic leukemia, intraperitoneal doses of 11 μg/kg/day) turned out to be 88%.
